In patent US20260294906A1, “TREATING PSORIASIS USING A SMALL MOLECULE INHIBITOR OF TUMOR NECROSIS FACTOR ALPHA” (SANOFI, priority 2023, published 2026):
Several values for one entry are separate records, joined by “and”; a condition that tells them apart may be missing. Identical values can stand only once.

Tests used:
[1] = tested on: patients with mild to moderate psoriasis; experiment: Clinical response by Target Lesion Severity (TLS) score, phase 1 placebo-controlled study; assay type: in vivo, human; details: for Mean (±SEM) % improvement from baseline in TLS score / ΔLSm (±SE) (Compound 1 minus placebo) in % improvement from baseline in TLS score: 200 mg BID; for LSm (±SE) % improvement from baseline in TLS score: 200 mg BID oral, fed, average of 2 lesions; for LSm (±SE) % improvement from baseline in TLS score / ΔLSm (±SE) (Compound 1 minus placebo) in % improvement from baseline in TLS score: MMRM
Protocol: A double-blind, randomized, placebo-controlled phase 1 study was carried out in participants with mild to moderate psoriasis. Study participants were randomized to 200 mg twice a day (BID) of Compound 1 or placebo in 2:1 ratio (approximately 24 in the treatment group and 12 in the placebo group). The study comprised an up to 4-week screening period, and a 4-week treatment period with Compound 1 or placebo. An end-of-study visit was carried out 10±3 days after the last investigational medicinal product (IMP) administration.
(§1) The primary objective of the study was to assess the safety, tolerability, and clinical efficacy of Compound 1 at 200 mg BID via oral administration. Also evaluated was the clinical effect of Compound 1 as compared to placebo on the percent change in PASI and TLS scores from baseline to week 2 and week 4. The percent change in PASI score from baseline to week 4 was determined. TLS score was also assessed over the same time period. Also assessed was the effect of Compound 1 on biomarkers of psoriasis. Blood samples collected at predetermined time points were processed to quantify serum levels of biomarkers, including interleukin (IL)-17A, IL-17F, and IL-22 by high sensitivity methods. IL-17A, IL-17F and IL-22 are the main cytokines released by Th17 cells. Plasma levels of Compound 1 were measured to assess pharmacokinetics in the study population.
(§2) Two study interventions were used, Compound 1 and placebo. The Compound 1 intervention comprised 4× tablets of Compound 1 50 mg twice daily, i.e. 200 mg BID, for 4 weeks. The placebo intervention was 4× tablets of placebo twice daily for 4 weeks. Tablets were administered orally.
The interventions were used in two arms of the study. Arm 1 was the experimental arm and it involved participants receiving 200 mg of Compound BID for 4 weeks under fed conditions. Arm 2 was the placebo arm and it involved participants receiving the matching placebo tablets for 4 weeks under fed conditions.
TLS score, which is a validated tool for psoriasis severity assessment, was used to evaluate severity and to assess clinical efficacy. It consists of a sum score of 3 clinical severity parameters (scaling, erythema, plaque elevation/induration; each graded on a 5-point severity scale; 0=clear, 1=slight, 2=mild, 3=moderate, and 4=severe) with a sum score ranging between 0 and 12 points (see, e.g., Czamowicki et al., J Am Acad Dermatol. (2014) 71(5):954-959.e1). The following assessment was used, in which TLS score was calculated as the sum of A+B+C (adapted from Fredriksson et al., Dermatologica (1978) 157(4):238-244):
The TLS score was assessed at baseline, 2 weeks and 4 weeks. Table 2 below presents the Least Square means (LSm)±Standard Error (SE) for each treatment and the Least Squares means difference (ΔLSm; Compound 1 minus placebo)±Standard Error (SE) with 90% confidence interval (CI) in percentage improvement from baseline in the TLS score (calculated as the average of the TLS score values collected from 2 lesions) at week 2 and week 4.
The results in Table 2 were obtained using the Mixed Model for Repeated Measures (MMRM).
Table 3 below presents the mean (±SEM) percentage improvement from baseline in the TLS score (calculated as the average of the TLS score values collected from 2 lesions) at week 2 and week 4 in the patient population with PASI<10 (mild) or PASI≥10 (moderate) at baseline.
The results in Table 3 come from standard descriptive analysis, ^(1)N=3, ^(2)N=15

IL-17A = experiment: Serum levels of biomarker IL-17A (single molecule counting sandwich immunoassay); assay type: in vivo, human
Protocol: as §1, §2
Blood samples were processed for analysis of IL-17A, IL-17F and IL-22 in serum samples by high sensitivity methods. Samples were collected according to the schedule of activity described above.
As indicated above, peripheral blood samples collected at predetermined time points were processed to quantify serum levels of biomarkers of psoriasis including IL-17A, IL-17F, and IL-22. Levels of IL-17A and IL-17F were quantified using a single molecule counting sandwich immunoassay (SMCxPro™, Millipore—see also Hwang et al., Methods (2019) 158:69-76). Levels of IL-22 were quantified using a single-molecule array ELISA (SIMOA™, Myriad RBM—see also Rissin et al., Anal Chem (2011) 83(6):2279-2285). Statistical analysis was based on geometric mean ratio to baseline; a two-sample t-test at significance alpha level of 5% was used for calculation of the p-values.

## CN1C(=O)c2cccc(OC(F)F)c2[C@H]2C[C@@H]1c1nc3ccc(-c4cnc(C5(N)CCC5)nc4)cc3n12 [Compound 1, (7R,14R)-11-[2-(1-aminocyclobutyl)pyrimidin-5-yl]-1-(difluoromethoxy)-6-methyl-6,7-dihydro-7,14-methanobenzimidazo[1,2-b][2,5]benzodiazocin-5(14H)-one]
[1]; PASI < 10 (mild) population, week 2, N = 16, SEM 3.61
  Mean (±SEM) % improvement from baseline in TLS score: 20.9%
[1]; PASI < 10 (mild) population, week 4, N = 15, SEM 6.32
  Mean (±SEM) % improvement from baseline in TLS score: 37.0%
[1]; PASI ≥ 10 (moderate) population, week 2, N = 9
  Mean (±SEM) % improvement from baseline in TLS score: 10.9% and 10.9 (6.20) %
[1]; PASI ≥ 10 (moderate) population, week 4, N = 9
  Mean (±SEM) % improvement from baseline in TLS score: 39.7% and 39.7 (4.03) %
[1]; week 2, vs placebo 6.29%, p=0.032
  LSm (±SE) % improvement from baseline in TLS score: 17.06% and 17.06 (3.13) %
[1]; week 2, 90% CI 1.29 to 20.26
  ΔLSm (±SE) (Compound 1 minus placebo) in % improvement from baseline in TLS score: 10.77% and 10.77 (5.61) %
[1]; week 4, vs placebo 20.44%, p=0.012
  LSm (±SE) % improvement from baseline in TLS score: 38.18% and 38.18 (4.33) %
[1]; week 4, 90% CI 4.98 to 30.49
  ΔLSm (±SE) (Compound 1 minus placebo) in % improvement from baseline in TLS score: 17.7% and 17.74% and 17.74 (7.54) %
[1]; week 4, FIG. 1, placebo around 1.25 points
  mean reduction in TLS score from baseline: around 2.5 points
IL-17A; after treatment for 4 weeks
  Serum level of IL-17A (in words): substantially decreased
IL-17A; baseline (before treatment)
  Serum level of IL-17A, geometric mean (geometric SE): 0.62 (1.15) pg/mL
IL-17A; week 2, 200 mg BID
  Serum level of IL-17A, geometric mean (geometric SE): 0.56 (1.13) pg/mL
IL-17A; week 4, 200 mg BID
  Serum level of IL-17A, geometric mean (geometric SE): 0.45 (1.14) pg/mL
